According to ChEMBL document CHEMBL1201862, “PubChem BioAssay data set” (2004):
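Following 48 hours of exposure in 96-well plates, responses at five concentrations were used to interpolate endpoints linearly. GI50 is the concentration that inhibits growth by half.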 The source made the active and inactive calls. Cut-off read from the data, not from the text of the source: active = GI50 up to about 1.1 µM and inactive = higher.

How the values were obtained:
Assay in all cases: NCI-60 cell line screen, 48 h
786-0 = tested on: 786-0
A549 = tested on: A549
ACHN = tested on: ACHN
CAKI-1 = tested on: CAKI-1
CCRF-CEM = tested on: CCRF-CEM
COLO 205 = tested on: COLO 205
DLD-1 = tested on: DLD-1
DMS-114 = tested on: DMS-114
DMS-273 = tested on: DMS-273
EKVX = tested on: EKVX
HCC 2998 = tested on: HCC 2998
HCT-116 = tested on: HCT-116
HCT-15 = tested on: HCT-15
HL-60 = tested on: HL-60
HOP-18 = tested on: HOP-18
HOP-62 = tested on: HOP-62
HOP-92 = tested on: HOP-92
HT-29 = tested on: HT-29
IGROV-1 = tested on: IGROV-1
K562 = tested on: K562
KM-20L2 = tested on: KM-20L2
KM12 = tested on: KM12
LXFL 529 = tested on: LXFL 529
M14 = tested on: M14
M19-MEL = tested on: M19-MEL
MOLT-4 = tested on: MOLT-4
Malme-3M = tested on: Malme-3M
NCI-H226 = tested on: NCI-H226
NCI-H23 = tested on: NCI-H23
NCI-H460 = tested on: NCI-H460
NCI-H522 = tested on: NCI-H522
OVCAR-3 = tested on: OVCAR-3
OVCAR-4 = tested on: OVCAR-4
OVCAR-5 = tested on: OVCAR-5
OVCAR-8 = tested on: OVCAR-8
RPMI-8226 = tested on: RPMI-8226
RXF 393 = tested on: RXF 393
RXF 631 = tested on: RXF 631
SF-268 = tested on: SF-268
SF-295 = tested on: SF-295
SF-539 = tested on: SF-539
SK-MEL-28 = tested on: SK-MEL-28
SK-MEL-2 = tested on: SK-MEL-2
SK-MEL-5 = tested on: SK-MEL-5
SK-OV-3 = tested on: SK-OV-3
SN12C = tested on: SN12C
SNB-19 = tested on: SNB-19
SNB-75 = tested on: SNB-75
SNB-78 = tested on: SNB-78
SR = tested on: SR
SW-620 = tested on: SW-620
U-251 = tested on: U-251
UACC-257 = tested on: UACC-257
UACC-62 = tested on: UACC-62
UO-31 = tested on: UO-31
A498 = tested on: A498
LOX IMVI = tested on: LOX IMVI
TK-10 = tested on: TK-10

## N=C1N(c2ccccc2)C(=O)C23CCCC2C13N1CCOCC1 (stereo not given)
786-0
  GI50: > 100 µM (inactive)
A549
  GI50: > 100 µM (inactive)
ACHN
  GI50: > 100 µM (inactive)
CAKI-1
  GI50: > 100 µM (inactive)
CCRF-CEM
  GI50: > 100 µM (inactive)
COLO 205
  GI50: > 100 µM (inactive)
DLD-1
  GI50: > 100 µM (inactive)
DMS-114
  GI50: > 100 µM (inactive)
DMS-273
  GI50: > 100 µM (inactive)
EKVX
  GI50: > 100 µM (inactive)
HCC 2998
  GI50: > 100 µM (inactive)
HCT-116
  GI50: > 100 µM (inactive)
HCT-15
  GI50: > 100 µM
HL-60
  GI50: > 100 µM (inactive)
HOP-18
  GI50: > 100 µM (inactive)
HOP-62
  GI50: > 100 µM (inactive)
HOP-92
  GI50: > 100 µM (inactive)
HT-29
  GI50: > 100 µM (inactive)
IGROV-1
  GI50: > 100 µM (inactive)
K562
  GI50: > 100 µM (inactive)
KM-20L2
  GI50: > 100 µM (inactive)
KM12
  GI50: > 100 µM (inactive)
LXFL 529
  GI50: > 100 µM (inactive)
M14
  GI50: > 100 µM (inactive)
M19-MEL
  GI50: > 100 µM (inactive)
MOLT-4
  GI50: > 100 µM (inactive)
Malme-3M
  GI50: > 100 µM (inactive)
NCI-H226
  GI50: > 100 µM (inactive)
NCI-H23
  GI50: > 100 µM (inactive)
NCI-H460
  GI50: > 100 µM (inactive)
NCI-H522
  GI50: > 100 µM (inactive)
OVCAR-3
  GI50: > 100 µM (inactive)
OVCAR-4
  GI50: > 100 µM (inactive)
OVCAR-5
  GI50: > 100 µM (inactive)
OVCAR-8
  GI50: > 100 µM (inactive)
RPMI-8226
  GI50: > 100 µM (inactive)
RXF 393
  GI50: > 100 µM (inactive)
RXF 631
  GI50: > 100 µM (inactive)
SF-268
  GI50: > 100 µM (inactive)
SF-295
  GI50: > 100 µM (inactive)
SF-539
  GI50: > 100 µM (inactive)
SK-MEL-28
  GI50: > 100 µM (inactive)
SK-MEL-2
  GI50: > 100 µM (inactive)
SK-MEL-5
  GI50: > 100 µM (inactive)
SK-OV-3
  GI50: > 100 µM (inactive)
SN12C
  GI50: > 100 µM (inactive)
SNB-19
  GI50: > 100 µM (inactive)
SNB-75
  GI50: > 100 µM (inactive)
SNB-78
  GI50: > 100 µM (inactive)
SR
  GI50: > 100 µM (inactive)
SW-620
  GI50: > 100 µM (inactive)
U-251
  GI50: > 100 µM (inactive)
UACC-257
  GI50: > 100 µM (inactive)
UACC-62
  GI50: > 100 µM (inactive)
UO-31
  GI50: > 100 µM (inactive)

## Cc1cc(Br)cc(C)c1NC(=O)C(=O)CC(=O)c1sc(-n2nc(-c3ccccc3)cc2-c2ccccc2)nc1C
786-0
  GI50: > 100 µM (inactive)
A498
  GI50: > 100 µM (inactive)
A549
  GI50: > 100 µM (inactive)
ACHN
  GI50: > 100 µM (inactive)
CAKI-1
  GI50: > 100 µM (inactive)
CCRF-CEM
  GI50: > 100 µM (inactive)
COLO 205
  GI50: > 100 µM (inactive)
DLD-1
  GI50: > 100 µM (inactive)
DMS-114
  GI50: > 100 µM (inactive)
DMS-273
  GI50: > 100 µM (inactive)
EKVX
  GI50: > 100 µM (inactive)
HCC 2998
  GI50: > 100 µM (inactive)
HCT-116
  GI50: > 100 µM (inactive)
HCT-15
  GI50: > 100 µM
HL-60
  GI50: > 100 µM (inactive)
HOP-18
  GI50: > 100 µM (inactive)
HOP-62
  GI50: > 100 µM (inactive)
HOP-92
  GI50: > 100 µM (inactive)
HT-29
  GI50: > 100 µM (inactive)
IGROV-1
  GI50: > 100 µM (inactive)
K562
  GI50: > 100 µM (inactive)
KM-20L2
  GI50: > 100 µM (inactive)
KM12
  GI50: > 100 µM (inactive)
LOX IMVI
  GI50: > 100 µM (inactive)
LXFL 529
  GI50: > 100 µM (inactive)
M14
  GI50: > 100 µM (inactive)
M19-MEL
  GI50: > 100 µM (inactive)
MOLT-4
  GI50: > 100 µM (inactive)
Malme-3M
  GI50: > 100 µM (inactive)
NCI-H226
  GI50: > 100 µM (inactive)
NCI-H23
  GI50: > 100 µM (inactive)
NCI-H460
  GI50: > 100 µM (inactive)
NCI-H522
  GI50: > 100 µM (inactive)
OVCAR-3
  GI50: > 100 µM (inactive)
OVCAR-4
  GI50: > 100 µM (inactive)
OVCAR-5
  GI50: > 100 µM (inactive)
OVCAR-8
  GI50: > 100 µM (inactive)
RPMI-8226
  GI50: > 100 µM (inactive)
RXF 393
  GI50: > 100 µM (inactive)
RXF 631
  GI50: > 100 µM (inactive)
SF-268
  GI50: > 100 µM (inactive)
SF-295
  GI50: > 100 µM (inactive)
SK-MEL-28
  GI50: > 100 µM (inactive)
SK-OV-3
  GI50: > 100 µM (inactive)
SN12C
  GI50: > 100 µM (inactive)
SNB-19
  GI50: > 100 µM (inactive)
SNB-75
  GI50: 49.9 µM (inactive)
SNB-78
  GI50: > 100 µM (inactive)
SR
  GI50: > 100 µM (inactive)
SW-620
  GI50: > 100 µM (inactive)
TK-10
  GI50: > 100 µM (inactive)
U-251
  GI50: > 100 µM (inactive)
UACC-257
  GI50: > 100 µM (inactive)
UACC-62
  GI50: > 100 µM (inactive)
UO-31
  GI50: > 100 µM (inactive)
